From ChEMBL document CHEMBL1201862, “PubChem BioAssay data set” (2004) come the findings set out here.

What all share (experiment): NCI anticancer screen, dose series, 48 h
For test [1], the system named is HL-60.
In test [2] the test system is RPMI-8226.
Test [3] relates to SNB-75.
Test [4] deals with NCI-H522.
The subject of test [5] is SNB-19.
For test [6], the system named is A549.
The subject of test [7] is NCI-H460.
In test [8] the test system is RXF 393.
Test [9] has as its system OVCAR-3.
For test [10], the system named is K562.
For test [11], the system named is EKVX.
Test [12] deals with SF-268.
In test [13] the test system is NCI-H226.
Test [14] concerns CCRF-CEM.
The test system of test [15] is 786-0.
Test [16] deals with OVCAR-4.
The subject of test [17] is MDA-MB-435.
The test system of test [18] is PC-3.
The test system of test [19] is MDA-MB-231.

The structures appear in SMILES notation.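 Cells were grown in 96-well plates and exposed to each compound for 48 hours at five concentrations; endpoints were interpolated linearly between bracketing concentrations, or set to the highest concentration if not reached. GI50 is the concentration that inhibits growth by half.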 The source made the active and inactive calls. No stated cut-off is given here; in the data, active = GI50 up to about 1.1 µM and inactive = higher.

Take `CC(C)C/C(CC(=O)CCC(=O)Nc1ccccc1[N+](=O)[O-])=N\NC(=O)c1cc2ccccc2cc1O`: the GI50 is 23.2 µM (inactive) in test [1]; 50 µM (inactive) in [2]; 37.7 µM (inactive) in test [3]; 28.4 µM (inactive) in test [4]; 45.5 µM (inactive) in test [5]; > 100 µM (inactive) in [6]. In addition, the GI50 in [7] was 33.7 µM (inactive); in test [8], 9.79 µM (inactive); in test [9], 26.7 µM (inactive); in test [10] it was 25.9 µM (inactive); in test [11], 34 µM (inactive); in [12] it was 38 µM (inactive). The GI50 was 19.3 µM (inactive) in test [13], 9.14 µM (inactive) in [14] and 36.8 µM (inactive) in test [15].
Regarding `O=c1c2ccccc2nc(-c2ccccc2)n1NC(=S)Nc1ccc(Cl)cc1`, the GI50 is 56.9 µM (inactive) in test [1]; 69.7 µM (inactive) in [2]; 59.4 µM (inactive) in test [3]; 34.7 µM (inactive) in [4]; 59.7 µM (inactive) in test [6]; 59.4 µM (inactive) in test [7]. Also, the GI50 is 41.9 µM (inactive) in [8]; 48.4 µM (inactive) in test [10]; > 100 µM (inactive) in [12]; 96.6 µM (inactive) in test [13]; 58.3 µM (inactive) in [14]; > 100 µM (inactive) in test [15]. For the same compound, the GI50 in [16] was 74.3 µM (inactive).
For the compound `COc1ccc(C2CC(c3cc(C)ccc3O)=NC(N)=N2)cc1` (stereo unspecified), the GI50 in test [1], in test [2], in [3], in test [4], in test [5] and in test [6] was > 100 µM (inactive) in each case. Moreover, the GI50 in test [7], in test [8], in [9], in test [10], in test [11] and in test [12] was > 100 µM (inactive) in each case. Further, the GI50 in [13], in [14], in [15] and in test [16] was > 100 µM (inactive) each time.
For `O=C(CSc1nnc(-c2ccc(/N=C\c3ccc(Cl)cc3)cc2)o1)Nc1ccc(Cl)cc1`, the GI50 in test [1] is > 100 µM (inactive); in [2], 41.7 µM (inactive); in [3] it was > 100 µM (inactive); in [4], > 100 µM (inactive); in test [5] it was > 100 µM (inactive); in test [6], > 100 µM (inactive). For the same compound, the GI50 in [7], in test [8], in test [10], in test [11], in test [12] and in [13] was > 100 µM (inactive) each time. For the same compound, the GI50 in [14], in [15] and in test [16] was > 100 µM (inactive) in each case.
In the case of `COCc1cc2c(cc1/C(=C/[N+](=O)[O-])CS(=O)(=O)c1ccccc1)OCO2`, the GI50 is > 100 µM (inactive) in test [1]; > 100 µM (inactive) in [2]; > 100 µM (inactive) in test [3]; 43.6 µM (inactive) in [4]; > 100 µM (inactive) in test [6]; > 100 µM (inactive) in test [7]. The GI50 in test [8], in [9], in test [10], in [11], in test [12] and in test [13] was > 100 µM (inactive) throughout. For the same compound, the GI50 in test [14], in test [17] and in [15] was > 100 µM (inactive) throughout.
With `N#C/C(=C/c1cccnc1)C(=O)c1ccccc1`, the GI50 in [1], in [2], in test [3], in [4], in test [5] and in [6] was > 100 µM (inactive) throughout. For the same compound, the GI50 in test [7], in test [8], in [9], in test [10], in test [11] and in test [12] was > 100 µM (inactive) each time. The GI50 in test [13], in test [14], in [15] and in test [16] was > 100 µM (inactive) each time.
Turning to `CCOC12SC(Nc3ccc(C)cc3)=NN1C(=S)N(C)N=C2C` (stereo unspecified), the GI50 in test [1], in [2], in test [3], in [4], in [5] and in [6] was > 100 µM (inactive) throughout. For the same compound, the GI50 in [7], in [8], in test [10], in test [11], in test [12] and in test [13] was > 100 µM (inactive) in each case. For the same compound, the GI50 in [14], in [15] and in test [16] was > 100 µM (inactive) each time.
Turning to `Cc1cc2c([nH]c3ccccc32)c2c1OC(C)(C)C1C3CC(C)(C)Oc4c(C)cc5c6ccccc6n(c5c43)C21` (stereo unspecified), the GI50 in test [1], in test [2], in test [3], in test [4], in test [5] and in test [6] was > 100 µM (inactive) in each case. The GI50 in test [7] is 52.7 µM (inactive); in test [8] it was > 100 µM (inactive); in [9], > 100 µM (inactive); in test [10], > 100 µM (inactive); in test [11], > 100 µM (inactive); in test [12] it was > 100 µM (inactive). Besides, the GI50 in test [14], in [15] and in test [16] was > 100 µM (inactive) each time.
As for `N#CCCC1(CCC#N)CCCCCCCCC(CCC#N)(CCC#N)C(O)C1O` (stereo unspecified), the GI50 in test [18] was > 100 µM (inactive); in test [2], < 0.01 µM (active); in [3], > 100 µM (inactive); in [4], 30.3 µM (inactive); in test [5], 66.7 µM (inactive); in test [6] it was 73.6 µM (inactive). In addition, the GI50 in [7] is > 100 µM (inactive); in [8], 31.9 µM (inactive); in [9], > 100 µM (inactive); in test [10], > 100 µM (inactive); in [11], > 100 µM (inactive); in test [12], 37.8 µM (inactive). The GI50 in test [13], in test [17], in [15] and in test [16] was > 100 µM (inactive) each time.
On to `O=c1c(Br)cc2c(-c3ccccc3)c3cc(Br)c(O)c(Br)c3oc-2c1Br`, for which the GI50 in test [1] was 51.6 µM (inactive); in test [18], > 100 µM (inactive); in [2], > 100 µM (inactive); in test [5] it was > 100 µM (inactive); in test [6] it was > 100 µM (inactive); in test [7], 77.4 µM (inactive). Besides, the GI50 in test [8], in test [9], in test [19], in test [10], in test [11] and in test [12] was > 100 µM (inactive) throughout. The GI50 in test [13] is > 100 µM (inactive); in test [14] it was > 100 µM (inactive); in test [17] it was > 100 µM (inactive); in test [15] it was > 100 µM (inactive); in test [16], 22.3 µM (inactive).
For the compound `COc1ccc(N[S+]([O-])CCc2ccccc2)cc1` (stereo unspecified), the GI50 in [1], in test [2], in test [3], in test [4], in test [5] and in [6] was > 100 µM (inactive) each time. The GI50 was > 100 µM (inactive) in test [7]; > 100 µM (inactive) in test [8]; > 100 µM (inactive) in test [9]; > 100 µM (inactive) in test [19]; 73.3 µM (inactive) in test [10]; > 100 µM (inactive) in [11]. Moreover, the GI50 in test [12], in test [13], in test [14], in test [17] and in test [15] was > 100 µM (inactive) throughout.
As to `COc1cc(/C=C/c2ccc(OC)c(OC)c2OC)cc(OC)c1OC`, the GI50 in test [1] is 23.1 µM (inactive); in test [2], 14.1 µM (inactive); in [3], 10.8 µM (inactive); in test [4], 15.3 µM (inactive); in [5], 21.3 µM (inactive); in [6], 27.2 µM (inactive). Further, the GI50 was 20.3 µM (inactive) in test [7]; 22 µM (inactive) in test [8]; 16 µM (inactive) in [9]; 23.1 µM (inactive) in test [10]; 21.5 µM (inactive) in [11]; 20.1 µM (inactive) in [12]. For the same compound, the GI50 in test [13] is 17.6 µM (inactive); in test [14] it was 22.4 µM (inactive); in [15], 21.8 µM (inactive); in [16], 25.4 µM (inactive).
For the compound `COc1cc2c(c3c1c(=O)c1ccccc1n3C)C=CC(C)(C)O2` [ACRONINE], the GI50 was 60.7 µM (inactive) in test [1]; 27.9 µM (inactive) in test [2]; 82.6 µM (inactive) in [3]; 18.5 µM (inactive) in [4]; > 100 µM (inactive) in test [5]; > 100 µM (inactive) in test [6]. Besides, the GI50 in test [7] is 43.6 µM (inactive); in [8] it was 25.1 µM (inactive); in test [9], > 100 µM (inactive); in test [10], 52.1 µM (inactive); in test [12], > 100 µM (inactive); in [13] it was > 100 µM (inactive). The GI50 is 79.1 µM (inactive) in test [14], 71 µM (inactive) in test [15] and > 100 µM (inactive) in test [16].
